Measured values reported in US12472177B2, “Bicyclic compounds and methods for their use in treating Pitt Hopkins syndrome” (NEUREN PHARMACEUTICALS LIMITED, priority 2019, dated 2025).

Experiments:
[1] = Delivery of cG-2-AllylP into the brain after oral administration (CSF, blood, brain exposure); type: in vivo, Sprague Dawley rats; conditions: rat
Experimental: In an in vivo study, male Sprague Dawley rats (aged 14 weeks) received a single dose of cG-2-AllylP, either 100 mg/kg or 200 mg/kg by oral gavage. Cerebrospinal fluid (CSF) and whole blood were collected at 1.5 and 4 hours postdose, and brain tissue was collected at 4 hours postdose to evaluate cG-2-AllylP exposure.

[2] = test system: Tcf4^+/− mice; assay: Social interaction / sociability (time sniffing a novel mouse); type: in vivo; set-up: key to Sociability: Tukey’s Multiple Comparison Test Summary: **** = p < 0.00001; ns = not significant
Experimental: (§1) In vivo behavioral studies were conducted in Tcf4^+/− mutant and wildtype littermate control (WT) mice by Gen.DDI (Santiago, Chile). Littermate controls consist of the genotypes Tcf4^+/+. All Tcf4 mutant mice used were heterozygous for the Tcf4 mutation because homozygous mutations of Tcf4 result in embryonic to postnatal day 1 lethality. Ten mice per treatment group, 14 weeks of age, were used for behavioral experiments. Experiments were conducted in line with the requirements of the UK Animals (Scientific Procedures) Act, 1986. The mice were housed in plastic cages (35×30×12 cm), 5 in each and habituated to the animal facilities for at least a week before commencing the test. The room temperature (21° C.±2° C.), relative humidity (55%±5%), a 12-hour light-dark cycle (lights on 7 AM to 7 PM), and air exchange were automatically controlled. The animals had free access to commercial food pellets and water. Testing was performed during the light phase of the circadian cycle, with the order of testing being determined by the principle of conducting the most stressful tests last. Assays were designed to reproduce and expand on the original behavioral characterization of Tcf4^+/− mice. Tcf4^+/− and WT control mice were treated for 6 weeks prior to testing and tested 30 minutes following a dose of cG-2-AllylP, as described in Table 2 below.
Social recognition and social memory in humans are very important. People with PTHS show lower amounts of social recognition and memory compared with people without PTHS. […] Therefore, to determine if NNZ-2591 (cG-2-AllylP) could be effective in normalizing this condition, we carried out a series of studies in mice, in which we determined the amount of time that mice spent sniffing a novel mouse.
To carry out these studies, mice were evaluated by the amount of time spent sniffing a novel mouse upon repeated exposures, to induce familiarity, and reinstatement of high levels of sniffing when a novel stimulus animal is introduced. We measured the number of bouts of sniffing in each of the groups of animals. The time spent sniffing a novel mouse is shown on the vertical axis and the animals and treatments are shown on the horizontal axis.

[3] = test system: Tcf4^+/− mice; assay: Hind limb force (motor performance); type: in vivo, mouse; set-up: key to Test of Force (Hind Limb): Tukey’s Muliple Comparison Test Summary: **** = p < 0.00001; ns = not significant
Experimental: as §1
Hind limb force is an important measure of the ability of a mouse to jump away from a predator. However, animals with the Tcf4^+/− mutation have substantially lower ability to jump away from a predator, making this mutation very serious and potentially life threatening. Hind limb force is also considered a surrogate for motor function in humans. To determine if NNZ-2591 (cG-2-AllylP) might provide a helpful treatment for this condition, we carried out a series of studies in which we measured hind limb force.

[4] = single oral dose 100 mg/kg, 1.5 h postdose
[5] = single oral dose 100 mg/kg, 4 h postdose
[6] = single oral dose 200 mg/kg, 1.5 h postdose
[7] = single oral dose 200 mg/kg, 4 h postdose
[8] = Tcf4^+/− + cG-2-AllylP (100 mg/kg) vs WT + cG-2-AllylP (200 mg/kg)
[9] = Tcf4^+/− + vehicle vs Tcf4^+/− + cG-2-AllylP (100 mg/kg)
[10] = Tcf4^+/− + vehicle vs Tcf4^+/− + cG-2-AllylP (200 mg/kg)
[11] = Tcf4^+/− + vehicle vs WT + cG-2-AllylP (100 mg/kg)
[12] = Tcf4^+/− + vehicle vs WT + cG-2-AllylP (200 mg/kg)
[13] = WT + cG-2-AllylP (100 mg/kg) vs Tcf4^+/− + cG-2-AllylP (100 mg/kg)
[14] = WT + cG-2-AllylP (100 mg/kg) vs Tcf4^+/− + cG-2-AllylP (200 mg/kg)
[15] = WT + cG-2-AllylP (100 mg/kg) vs WT + cG-2-AllylP (200 mg/kg)
[16] = WT + cG-2-AllylP (200 mg/kg) vs Tcf4^+/− + cG-2-AllylP (200 mg/kg)
[17] = WT + vehicle vs Tcf4^+/− + cG-2-AllylP (100 mg/kg)
[18] = WT + vehicle vs Tcf4^+/− + cG-2-AllylP (200 mg/kg)
[19] = WT + vehicle vs WT + cG-2-AllylP (100 mg/kg)
[20] = WT mice, 100 mg/kg oral BID 6 weeks
[21] = WT mice, 200 mg/kg oral BID 6 weeks

C=CC[C@]12CCCN1C(=O)CNC2=O [cG-2-AllylP, (8aS)-Allyl-hexahydropyrrolo[1,2-a]pyrazine-1,4-dione]
Dose dependence of concentration in blood, CSF and brain ([1]; 100 vs 200 mg/kg single oral dose, blood and CSF at 1.5 h, blood, CSF and brain at 4 h): approximately proportional increase
Concentration in blood compared with brain tissue ([1]; 4 hours post dose): approximately equivalent
Concentration of cG-2-AllylP in Blood [1, 4]: 58500 ng/mL
Concentration of cG-2-AllylP in CSF [1, 4]: 40400 ng/mL
Concentration of cG-2-AllylP in Blood [1, 5]: 15600 ng/mL
Concentration of cG-2-AllylP in Brain [1, 5]: 22600 ng/mL
Concentration of cG-2-AllylP in CSF [1, 5]: 11000 ng/mL
Concentration of cG-2-AllylP in Blood [1, 6]: 116000 ng/mL
Concentration of cG-2-AllylP in CSF [1, 6]: 82200 ng/mL
Concentration of cG-2-AllylP in Blood [1, 7]: 34200 ng/mL
Concentration of cG-2-AllylP in Brain [1, 7]: 37000 ng/mL
Concentration of cG-2-AllylP in CSF [1, 7]: 24700 ng/mL
Sociability: Tukey’s Multiple Comparison Test Summary ([2]; Tcf4^+/− + cG-02-AllylP (100 mg/kg) vs Tcf4^+/− + cG-2-AllylP (200 mg/kg)): ns
Sociability: Tukey’s Multiple Comparison Test Summary [2, 8]: ns
Sociability: Tukey’s Multiple Comparison Test Summary [2, 9]: **** (**** = p < 0.0001)
Sociability: Tukey’s Multiple Comparison Test Summary [2, 10]: **** (**** = p < 0.0001)
Sociability: Tukey’s Multiple Comparison Test Summary [2, 11]: **** (**** = p < 0.0001)
Sociability: Tukey’s Multiple Comparison Test Summary [2, 12]: **** (**** = p < 0.0001)
Behavior Normalized to WildType Levels: Sociability ([2]; Tcf4^+/− mice, 100 mg/kg): ✓
Time spent sniffing a novel mouse ([2]; Tcf4^+/− mice, 100 mg/kg oral BID 6 weeks, compared to Tcf4^+/− mice treated with vehicle only): substantial and statistically significant increases
Behavior Normalized to WildType Levels: Sociability ([2]; Tcf4^+/− mice, 200 mg/kg): ✓
Time spent sniffing a novel mouse ([2]; Tcf4^+/− mice, 200 mg/kg oral BID 6 weeks, compared to Tcf4^+/− mice treated with vehicle only): substantial and statistically significant increases
Sociability: Tukey’s Multiple Comparison Test Summary [2, 13]: ns
Sociability: Tukey’s Multiple Comparison Test Summary [2, 14]: ns
Sociability: Tukey’s Multiple Comparison Test Summary [2, 15]: ns
Sociability: Tukey’s Multiple Comparison Test Summary [2, 16]: ns
Sociability: Tukey’s Multiple Comparison Test Summary [2, 17]: ns
Sociability: Tukey’s Multiple Comparison Test Summary [2, 18]: ns
Sociability: Tukey’s Multiple Comparison Test Summary [2, 19]: ns
Time spent sniffing a novel mouse [2, 20]: nearly identical times
Time spent sniffing a novel mouse [2, 21]: nearly identical times
Test of Force (Hind Limb): Tukey’s Muliple Comparison Test Summary ([3]; Tcf4^+/− + cG-2-AllylP (100 mg/kg) vs Tcf4^+/− + cG-2-AllylP (200 mg/kg)): ns
Test of Force (Hind Limb): Tukey’s Muliple Comparison Test Summary [3, 8]: ns
Test of Force (Hind Limb): Tukey’s Muliple Comparison Test Summary [3, 9]: **** (**** = p <0.00001)
Test of Force (Hind Limb): Tukey’s Muliple Comparison Test Summary [3, 10]: **** (**** = p <0.00001)
Test of Force (Hind Limb): Tukey’s Muliple Comparison Test Summary [3, 11]: **** (**** = p <0.00001)
Test of Force (Hind Limb): Tukey’s Muliple Comparison Test Summary [3, 12]: **** (**** = p <0.00001)
Behavior Normalized to WildType Levels: Force ([3]; Tcf4^+/− mice, 100 mg/kg): ✓
Hind limb force ([3]; Tcf4^+/− mice, 100 mg/kg oral BID 6 weeks): nearly identical to those produced by WT mice
Behavior Normalized to WildType Levels: Force ([3]; Tcf4^+/− mice, 200 mg/kg): ✓
Hind limb force ([3]; Tcf4^+/− mice, 200 mg/kg oral BID 6 weeks): nearly identical to those produced by WT mice
Test of Force (Hind Limb): Tukey’s Muliple Comparison Test Summary [3, 13]: ns
Test of Force (Hind Limb): Tukey’s Muliple Comparison Test Summary [3, 14]: ns
Test of Force (Hind Limb): Tukey’s Muliple Comparison Test Summary [3, 15]: ns
Test of Force (Hind Limb): Tukey’s Muliple Comparison Test Summary [3, 16]: ns
Test of Force (Hind Limb): Tukey’s Muliple Comparison Test Summary [3, 17]: ns
Test of Force (Hind Limb): Tukey’s Muliple Comparison Test Summary [3, 18]: ns
Test of Force (Hind Limb): Tukey’s Muliple Comparison Test Summary [3, 19]: ns
Test of Force (Hind Limb): Tukey’s Muliple Comparison Test Summary ([3]; WT + vehicle vs WT + cG-2-AllylP (200 mg/kg)): ns
Hind limb force [3, 20]: about the same levels of force as vehicle-treated WT mice
Hind limb force [3, 21]: about the same levels of force as vehicle-treated WT mice
